Assay [1] concerns Intestinimonas strain P1C2. To be noted: against Intestinimonas strain P1C2, described as resistant; cited from earlier work.
Assay [2] has as its system Intestinimonas strain AF211. The assay is described as follows: Antibiotic sensitivity (MIC) of Intestinimonas strain AF211. Type of assay: cell-based, Intestinimonas butyriciproducens. As for the experimental part: “Minimum inhibitory concentration” or “MIC” as used herein refers to the lowest concentration of an antimicrobial that will inhibit the visible growth of a microorganism after overnight incubation. Minimum inhibitory concentrations are important in diagnostic laboratories to confirm resistance of microorganisms to an antimicrobial agent and also to monitor the activity of new antimicrobial agents. An MIC is generally regarded as the most basic laboratory measurement of the activity of an antimicrobial agent against an organism.
Rettedal et al. (Nature Comm. (2014), 5:4714) describe the use of antibiotics to isolate and culture bacteria from the human intestinal tract. However, this approach often results in antibiotic-resistant bacteria and these are undesired in formulations aimed for human or animal use.
Strain AF211 had the following sensitivity to various antibiotics: […]

Where [3] appears, read: Intestinimonas butyriciproducens, against strain AF211, read-out: MIC.

These results are taken from patent publication US11426436B2, “Bacteria-comprising compositions and methods of using the same for treating and/or preventing gastrointestinal, metabolic and/or other diseases” (priority 2015, dated 2022).

Values after ≈ are worked out from the molar mass of the structure shown. Like-named read-outs stand apart in the source and are kept apart here.

For `CC[C@H]1OC(=O)[C@H](C)[C@@H](O[C@H]2C[C@@](C)(OC)[C@@H](O)[C@H](C)O2)[C@H](C)[C@@H](O[C@@H]2O[C@H](C)C[C@H](N(C)C)[C@H]2O)[C@](C)(O)C[C@@H](C)C(=O)[C@H](C)[C@@H](O)[C@]1(C)O` [Erythromycin], in assay [1], the MIC of erythromycin is 32 µg/mL. Further, the minimal inhibitory concentration (MIC) was 1 µg/mL in assay [2] (Intestinimonas butyriciproducens, against strain AF211, text value, read-out: MIC of erythromycin) and 0.75 to 1 µg/mL (≈ 1.02 to 1.36 µM) in assay [2] (setting [3]).
As for `Cc1onc(-c2ccccc2)c1C(=O)N[C@@H]1C(=O)N2[C@@H]1SC(C)(C)[C@@H]2C(=O)O` [Oxacillin], the minimal inhibitory concentration (MIC) in assay [2] (setting [3]) came out at 0.38 µg/mL (≈ 0.947 µM).
The same measure, in the same setting: for `NC[C@H]1O[C@H](O[C@H]2[C@H](O)[C@@H](O[C@H]3O[C@H](CO)[C@@H](O)[C@H](N)[C@H]3O)[C@H](N)C[C@@H]2N)[C@H](N)C[C@@H]1O` [Tobramycin] the value was 2 µg/mL (≈ 4.28 µM).
With `CN[C@H](CC(C)C)C(=O)N[C@H]1C(=O)N[C@@H](CC(N)=O)C(=O)N[C@H]2C(=O)N[C@H]3C(=O)N[C@H](C(=O)N[C@H](C(=O)O)c4cc(O)cc(O)c4-c4cc3ccc4O)[C@H](O)c3ccc(c(Cl)c3)Oc3cc2cc(c3O[C@@H]2O[C@H](CO)[C@@H](O)[C@H](O)[C@H]2O[C@H]2C[C@](C)(N)[C@H](O)[C@H](C)O2)Oc2ccc(cc2Cl)[C@H]1O` [Vancomycin], the lowest concentration to inhibit growth in assay [2] (Intestinimonas butyriciproducens, AF211) (MIC) was 0.75 µg/mL (≈ 0.518 µM).
In assay [2] (against strain AF211), Teicoplanin showed a minimum inhibitory concentration (MIC) of 0.047 µg/mL.

By MIC is commonly meant the smallest concentration in the dilution series that meets the test's criterion for growth inhibition.
